According to PMC4851326, “Pharmacologic Comparison of Clinical Neutral Endopeptidase Inhibitors in a Rat Model of Acute Secretory Diarrhea” (The Journal of Pharmacology and Experimental Therapeutics, 2016):

Key:
NEP [1] = biological target: T1, NEP (Rattus norvegicus, UniProt P07861); test: NEP enzyme activity in tissues after oral treatment; format: in vivo; settings: 5 hours postdose, single oral dose, rats
T1 construct: NEP enzyme activity was measured in tissue homogenates; from tissue; host or cells: Wistar rat kidney, lung, duodenum, jejunum homogenates
T1 sequence (P07861 1-750): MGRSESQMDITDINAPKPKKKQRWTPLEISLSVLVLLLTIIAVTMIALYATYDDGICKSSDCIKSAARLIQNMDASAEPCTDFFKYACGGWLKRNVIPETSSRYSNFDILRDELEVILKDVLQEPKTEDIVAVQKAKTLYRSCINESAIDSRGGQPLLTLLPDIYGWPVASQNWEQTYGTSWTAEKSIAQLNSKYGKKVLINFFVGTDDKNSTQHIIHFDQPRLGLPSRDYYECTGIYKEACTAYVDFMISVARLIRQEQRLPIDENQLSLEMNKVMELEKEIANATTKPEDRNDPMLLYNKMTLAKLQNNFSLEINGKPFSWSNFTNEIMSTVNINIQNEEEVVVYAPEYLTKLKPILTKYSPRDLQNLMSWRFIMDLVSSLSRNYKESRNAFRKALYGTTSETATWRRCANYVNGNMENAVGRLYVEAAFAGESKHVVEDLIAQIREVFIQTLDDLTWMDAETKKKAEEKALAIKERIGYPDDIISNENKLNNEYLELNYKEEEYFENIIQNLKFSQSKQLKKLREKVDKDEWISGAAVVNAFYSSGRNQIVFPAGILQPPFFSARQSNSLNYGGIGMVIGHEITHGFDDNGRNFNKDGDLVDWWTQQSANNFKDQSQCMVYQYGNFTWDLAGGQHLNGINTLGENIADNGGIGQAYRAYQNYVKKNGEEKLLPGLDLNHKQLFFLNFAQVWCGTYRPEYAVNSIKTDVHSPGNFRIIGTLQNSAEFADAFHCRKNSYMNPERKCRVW
Method: Four or five 2-mm Zirconia beads (Biospec, Bartlesville, OK) were added to fresh weighed tissue specimens (50–250 mg). Assay buffer consisting of 50 mM Tris-HCl (pH 7.4), 200 mM NaCl, and 0.05% TritonX-100 was added (4 μl/mg), and the sample was homogenized for 1 minute using a bead beater (Biospec). Stored frozen homogenates were thawed at room temperature and centrifuged 10 minutes at 18,000g, and the protein concentration was determined for each supernatant. […] NEP substrate 2Abz-dArg-Gly-Leu-C2-Dnp (American Peptide, Sunnyvale, CA) was prepared at 1 mM in 20% acetonitrile/water and diluted to 100 μM in assay buffer, and 10 μl was dispensed to homogenate-containing wells. […] Kinetic data were plotted to determine the rate of product formation by linear regression with interpolation against a standard curve, and the rate was normalized to protein concentration.

ECE-2 = biological target: T2, ECE-2 (Homo sapiens, UniProt P0DPD6); test: Purified peptidase assay, ECE-2; format: biochemical; settings: recombinant purified human enzyme; for prodrugs the active form was tested
T2 construct: purchased R&D Systems (Minneapolis, MN)
T2 sequence (P0DPD6 1-811): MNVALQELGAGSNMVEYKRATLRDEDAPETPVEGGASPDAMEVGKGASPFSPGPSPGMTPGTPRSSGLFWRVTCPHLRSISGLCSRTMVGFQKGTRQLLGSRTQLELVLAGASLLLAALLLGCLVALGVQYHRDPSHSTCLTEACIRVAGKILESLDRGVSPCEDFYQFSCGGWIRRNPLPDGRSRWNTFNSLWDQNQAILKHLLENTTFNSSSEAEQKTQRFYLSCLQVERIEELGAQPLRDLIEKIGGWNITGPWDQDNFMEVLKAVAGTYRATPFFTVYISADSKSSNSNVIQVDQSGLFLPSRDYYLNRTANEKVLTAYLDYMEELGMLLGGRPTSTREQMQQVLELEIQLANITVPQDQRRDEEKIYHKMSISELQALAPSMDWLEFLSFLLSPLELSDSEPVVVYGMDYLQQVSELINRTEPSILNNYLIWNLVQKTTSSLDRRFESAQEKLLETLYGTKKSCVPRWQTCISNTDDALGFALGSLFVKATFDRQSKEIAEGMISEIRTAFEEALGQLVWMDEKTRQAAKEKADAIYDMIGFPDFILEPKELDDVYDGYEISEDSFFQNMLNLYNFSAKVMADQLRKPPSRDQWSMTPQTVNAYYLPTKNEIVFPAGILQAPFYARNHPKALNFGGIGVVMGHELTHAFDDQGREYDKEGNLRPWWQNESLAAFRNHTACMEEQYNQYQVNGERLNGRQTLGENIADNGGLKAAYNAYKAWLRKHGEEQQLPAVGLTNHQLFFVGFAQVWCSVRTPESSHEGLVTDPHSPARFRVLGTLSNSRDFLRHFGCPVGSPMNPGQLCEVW
Method: (§1) Purified recombinant human enzymes were purchased from R&D Systems (Minneapolis, MN). […] Each substrate was diluted to 100 μM in the assay buffer recommended for each enzyme by the supplier. […] To these, 5 μl of diluted enzyme was added, followed by 10 μl of the quenched peptide substrate. The plates were incubated at 37°C until at least 10% substrate turnover or 5 μM product had formed. Fluorescence was measured using a Tecan Safire II (Excitation 320 nm/Emission 420 nm). Each plate included a standard curve of reaction product and positive (no enzyme) and negative (dimethyl sulfoxide vehicle) controls. Dose-response data were plotted and inhibition values (IC50) determined by linear regression analysis using GraphPad Prism (GraphPad Software, La Jolla, CA).

NEP [2] = biological target: T3, NEP (Homo sapiens, UniProt P08473); test: Purified peptidase assay, NEP; format: biochemical; settings: recombinant purified human enzyme; for prodrugs the active form was tested
T3 construct: purchased R&D Systems (Minneapolis, MN)
Method: as §1

T3 sequence (P08473 whole entry): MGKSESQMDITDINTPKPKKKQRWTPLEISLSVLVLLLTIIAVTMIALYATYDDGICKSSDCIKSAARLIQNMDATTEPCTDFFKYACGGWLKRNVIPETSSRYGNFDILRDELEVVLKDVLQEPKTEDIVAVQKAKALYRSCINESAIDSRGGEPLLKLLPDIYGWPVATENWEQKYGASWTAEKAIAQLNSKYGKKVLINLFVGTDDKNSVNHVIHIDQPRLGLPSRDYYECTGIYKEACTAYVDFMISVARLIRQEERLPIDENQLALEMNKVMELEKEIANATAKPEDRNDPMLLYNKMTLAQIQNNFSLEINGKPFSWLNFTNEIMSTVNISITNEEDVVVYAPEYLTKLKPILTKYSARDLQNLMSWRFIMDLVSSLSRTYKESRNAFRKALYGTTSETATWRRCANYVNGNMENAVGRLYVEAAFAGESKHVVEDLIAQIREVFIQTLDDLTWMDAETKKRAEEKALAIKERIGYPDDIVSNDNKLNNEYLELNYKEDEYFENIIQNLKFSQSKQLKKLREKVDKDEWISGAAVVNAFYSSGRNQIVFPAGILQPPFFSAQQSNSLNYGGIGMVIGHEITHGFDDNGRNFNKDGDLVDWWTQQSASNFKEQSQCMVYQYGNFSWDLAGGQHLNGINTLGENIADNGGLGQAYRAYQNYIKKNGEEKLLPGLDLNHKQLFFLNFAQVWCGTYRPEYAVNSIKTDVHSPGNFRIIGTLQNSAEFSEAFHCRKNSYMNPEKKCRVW

Inhibition of NEP in the intestinal segments (NEP [1]): > 92%
Inhibition of NEP in the intestinal segments (NEP [1]; listed as UK-505,797): ≥ 97%
IC50 (ECE-2): 15 µM
IC50 (NEP [2]): 0.004 µM
Structure (SMILES): Cc1nc2ccc(CCCNC(=O)C3(C[C@@H](C)C(=O)O)CCCC3)cc2s1 [UK-505,749, (R)-2-methyl-3-(1-((3-(2-methylbenzo[d]thiazol-6-yl)propyl)carbamoyl)cyclopentyl)propanoic acid]
